Laboratory results reported in US20260055113A1, “HETEROARYL COMPOUNDS FOR THE TREATMENT OF CANCER” (Hoffmann-La Roche Inc., priority 2022, published 2026).

Assay: Human microsomal stability assay
Type: in vitro ADME
Details: human liver microsomes 0.5 mg/mL, 1 μM test compound, 37° C., pH 7.4
Method: Human liver microsomes (Cat. NO.: 452117, Corning, USA) were preincubated with test compound for 10 minutes at 37° C. in 100 mM potassium phosphate buffer, pH 7.4. The reactions were initiated by adding NADPH regenerating system. The final incubation mixtures contained 1 μM test compound, 0.5 mg/mL liver microsomal protein, 1 mM MgCl2, 1 mM NADP, 1 unit/mL isocitric dehydrogenase and 6 mM isocitric acid in 100 mM potassium phosphate buffer, pH 7.4. After incubation times of 0, 3, 6, 9, 15 and 30 minutes at 37° C., 300 μL of cold ACN (including internal standard) was added to 100 μL incubation mixture to terminate the reaction. Following precipitation and centrifugation, 100 μL supernatant will be taken out and added 300 μL water. The amount of compound remaining in the samples was determined by LC-MS/MS. Controls of no NADPH regenerating system at zero and 30 minutes were also prepared and analyzed. The results were categorized as: low (<7.0 mL/min/kg), medium (7.0-16.2 mL/min/kg) and high (16.2-23.2 mL/min/kg).

CL (h) [mL/min/kg] | Compound
6.15 | Cc1cccc([C@@H](Oc2nn(C)c3nnc(-c4c[nH]c(=O)[nH]c4=O)cc23)C(F)F)n1 [Example 33A, 5-[3-[(1R)-2,2-difluoro-1-(6-methyl-2-pyridyl)ethoxy]-1-methyl-pyrazolo[3,4-c]pyridazin-5-yl]-1H-pyrimidine-2,4-dione]
6.15 | Cn1nc(O[C@H](c2ccccn2)C(F)F)c2cc(-c3c[nH]c(=O)[nH]c3=O)nnc21 [Example 31A, 5-[3-[(1R)-2,2-difluoro-1-(2-pyridyl)ethoxy]-1-methyl-pyrazolo[3,4-c]pyridazin-5-yl]-1H-pyrimidine-2,4-dione]
6.15 | Cn1nc(O[C@H](c2ccccc2)C(F)F)c2cc(-c3c[nH]c(=O)[nH]c3=O)nnc21 [Example 28, 5-[3-[(1R)-2,2-difluoro-1-phenyl-ethoxy]-1-methyl-pyrazolo[3,4-c]pyridazin-5-yl]-1H-pyrimidine-2,4-dione]
8.11 | Cc1cccc([C@H](C)Oc2nn(C)c3nnc(-c4c[nH]c(=O)[nH]c4=O)cc23)n1 [Example 41, 5-[1-methyl-3-[(1S)-1-(6-methyl-2-pyridyl)ethoxy]pyrazolo[3,4-c]pyridazin-5-yl]-1H-pyrimidine-2,4-dione]
6.15 | CC(c1ccccc1)c1nn(C)c2nnc(-c3c[nH]c(=O)[nH]c3=O)cc12 (stereo not shown) [Example 5, 5-[1-methyl-3-(1-phenylethyl)pyrazolo[3,4-c]pyridazin-5-yl]-1H-pyrimidine-2,4-dione]
6.15 | Cn1nc(O[C@@H](c2ccccn2)C(F)(F)F)c2cc(-c3c[nH]c(=O)[nH]c3=O)nnc21 [Example 29B, 5-[1-methyl-3-[(1S)-2,2,2-trifluoro-1-(2-pyridyl)ethoxy]pyrazolo[3,4-c]pyridazin-5-yl]-1H-pyrimidine-2,4-dione]
6.15 | Cn1nc(O[C@H](c2ccc(F)cn2)C(F)F)c2cc(-c3c[nH]c(=O)[nH]c3=O)nnc21 [Example 32A, 5-[3-[(1R)-2,2-difluoro-1-(5-fluoro-2-pyridyl)ethoxy]-1-methyl-pyrazolo[3,4-c]pyridazin-5-yl]-1H-pyrimidine-2,4-dione]
6.15 | Cn1nc(O[C@@H](c2ccc(F)cn2)C(F)F)c2cc(-c3c[nH]c(=O)[nH]c3=O)nnc21 [Example 32B, 5-[3-[(1S)-2,2-difluoro-1-(5-fluoro-2-pyridyl)ethoxy]-1-methyl-pyrazolo[3,4-c]pyridazin-5-yl]-1H-pyrimidine-2,4-dione]
8.44 | Cn1nc(O[C@@H](c2ccccc2)C(F)(F)F)c2cc(-c3c[nH]c(=O)[nH]c3=O)nnc21 [Example 30B, 5-[1-methyl-3-[(1S)-2,2,2-trifluoro-1-phenyl-ethoxy]pyrazolo[3,4-c]pyridazin-5-yl]-1H-pyrimidine-2,4-dione]
6.15 | Cn1nc(O[C@@H](c2ccccn2)C(F)F)c2cc(-c3c[nH]c(=O)[nH]c3=O)nnc21 [Example 31B, 5-[3-[(1S)-2,2-difluoro-1-(2-pyridyl)ethoxy]-1-methyl-pyrazolo[3,4-c]pyridazin-5-yl]-1H-pyrimidine-2,4-dione]
6.15 | Cc1cccc([C@H](Oc2nn(C)c3nnc(-c4c[nH]c(=O)[nH]c4=O)cc23)C(F)F)n1 [Example 33B, 5-[3-[(1S)-2,2-difluoro-1-(6-methyl-2-pyridyl)ethoxy]-1-methyl-pyrazolo[3,4-c]pyridazin-5-yl]-1H-pyrimidine-2,4-dione]
6.15 | Cc1nc([C@H](C)Oc2nn(C)c3nnc(-c4c[nH]c(=O)[nH]c4=O)cc23)ccc1F [Example 40, 5-[3-[(1S)-1-(5-fluoro-6-methyl-2-pyridyl)ethoxy]-1-methyl-pyrazolo[3,4-c]pyridazin-5-yl]-1H-pyrimidine-2,4-dione]
6.15 | CC(Oc1nn(C)c2nnc(-c3c[nH]c(=O)[nH]c3=O)cc12)c1ccccc1 (stereo not shown) [Example 10, 5-[1-methyl-3-(1-phenylethoxy)pyrazolo[3,4-c]pyridazin-5-yl]-1H-pyrimidine-2,4-dione]
